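A five-concentration, 48-hour dose response in 96-well plates underlies each endpoint, interpolated linearly between surrounding concentrations. TGI: total growth inhibition.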
Tests used:
Assay in all cases: NCI tumour cell line growth inhibition, 48 h
NCI-H23 lung = test system: NCI-H23 lung
HCT-15 colon = test system: HCT-15 colon
SNB-19 CNS = test system: SNB-19 CNS
MDA-N = test system: MDA-N
U251 CNS = test system: U251 CNS
K-562 leukemia = test system: K-562 leukemia
NCI-H460 lung = test system: NCI-H460 lung
RXF 393 renal = test system: RXF 393 renal
NCI-H226 lung = test system: NCI-H226 lung
SW-620 colon = test system: SW-620 colon
OVCAR-3 ovarian = test system: OVCAR-3 ovarian
BT-549 breast = test system: BT-549 breast
MDA-MB-435 = test system: MDA-MB-435
MALME-3M melanoma = test system: MALME-3M melanoma
PC-3 prostate = test system: PC-3 prostate
SK-MEL-5 melanoma = test system: SK-MEL-5 melanoma
HT29 colon = test system: HT29 colon
HL-60(TB) leukemia = test system: HL-60(TB) leukemia
HCT-116 colon = test system: HCT-116 colon
OVCAR-5 ovarian = test system: OVCAR-5 ovarian
MCF7 breast = test system: MCF7 breast
SF-539 CNS = test system: SF-539 CNS
SR leukemia = test system: SR leukemia
TK-10 renal = test system: TK-10 renal
HS 578T breast = test system: HS 578T breast
SNB-75 CNS = test system: SNB-75 CNS
RPMI-8226 leukemia = test system: RPMI-8226 leukemia
786-0 renal = test system: 786-0 renal
HCC-2998 colon = test system: HCC-2998 colon
SN12C renal = test system: SN12C renal
HOP-62 NSCLC = test system: HOP-62 NSCLC
UACC-62 melanoma = test system: UACC-62 melanoma
COLO 205 colon = test system: COLO 205 colon
EKVX NSCLC = test system: EKVX NSCLC
SK-MEL-2 melanoma = test system: SK-MEL-2 melanoma
A549 NSCLC = test system: A549 NSCLC
OVCAR-8 ovarian = test system: OVCAR-8 ovarian
KM12 colon = test system: KM12 colon
IGROV1 ovarian = test system: IGROV1 ovarian
CCRF-CEM leukemia = test system: CCRF-CEM leukemia
SF-295 CNS = test system: SF-295 CNS
DU-145 prostate = test system: DU-145 prostate
UO-31 renal = test system: UO-31 renal
NCI/ADR-RES ovarian = test system: NCI/ADR-RES ovarian
HOP-92 NSCLC = test system: HOP-92 NSCLC
SK-MEL-28 melanoma = test system: SK-MEL-28 melanoma
UACC-257 melanoma = test system: UACC-257 melanoma
SF-268 CNS = test system: SF-268 CNS
ACHN renal = test system: ACHN renal
M14 melanoma = test system: M14 melanoma
LOX IMVI melanoma = test system: LOX IMVI melanoma
OVCAR-4 ovarian = test system: OVCAR-4 ovarian
A498 renal = test system: A498 renal
MDA-MB-231 breast = test system: MDA-MB-231 breast
NCI-H522 lung = test system: NCI-H522 lung
T-47D breast = test system: T-47D breast
CAKI-1 renal = test system: CAKI-1 renal
MOLT-4 leukemia = test system: MOLT-4 leukemia
SK-OV-3 ovarian = test system: SK-OV-3 ovarian

## O=c1[nH]nc(Nc2ccc(Cl)cc2)c2nnn(C3CCCCC3)c12
NCI-H23 lung
  TGI: > 100 µM
HCT-15 colon
  TGI: > 100 µM
SNB-19 CNS
  TGI: > 100 µM
MDA-N
  TGI: > 100 µM
U251 CNS
  TGI: 91 µM
K-562 leukemia
  TGI: > 100 µM
NCI-H460 lung
  TGI: > 100 µM
RXF 393 renal
  TGI: 92.8 µM
NCI-H226 lung
  TGI: > 100 µM
SW-620 colon
  TGI: > 100 µM
OVCAR-3 ovarian
  TGI: > 100 µM
BT-549 breast
  TGI: > 100 µM
MDA-MB-435
  TGI: > 100 µM
MALME-3M melanoma
  TGI: > 100 µM
PC-3 prostate
  TGI: > 100 µM
SK-MEL-5 melanoma
  TGI: > 100 µM
HT29 colon
  TGI: > 100 µM
HL-60(TB) leukemia
  TGI: > 100 µM
HCT-116 colon
  TGI: > 100 µM
OVCAR-5 ovarian
  TGI: > 100 µM
MCF7 breast
  TGI: > 100 µM
SF-539 CNS
  TGI: > 100 µM
SR leukemia
  TGI: 43.3 µM
TK-10 renal
  TGI: > 100 µM
HS 578T breast
  TGI: > 100 µM
SNB-75 CNS
  TGI: > 100 µM
RPMI-8226 leukemia
  TGI: > 100 µM
786-0 renal
  TGI: 31.4 µM
HCC-2998 colon
  TGI: > 100 µM
SN12C renal
  TGI: > 100 µM
HOP-62 NSCLC
  TGI: > 100 µM
UACC-62 melanoma
  TGI: > 100 µM
COLO 205 colon
  TGI: > 100 µM
EKVX NSCLC
  TGI: > 100 µM
SK-MEL-2 melanoma
  TGI: > 100 µM
A549 NSCLC
  TGI: > 100 µM
OVCAR-8 ovarian
  TGI: 34.3 µM
KM12 colon
  TGI: > 100 µM
IGROV1 ovarian
  TGI: > 100 µM
CCRF-CEM leukemia
  TGI: > 100 µM
SF-295 CNS
  TGI: > 100 µM
DU-145 prostate
  TGI: > 100 µM
UO-31 renal
  TGI: > 100 µM
NCI/ADR-RES ovarian
  TGI: > 100 µM
HOP-92 NSCLC
  TGI: 66 µM
SK-MEL-28 melanoma
  TGI: > 100 µM
UACC-257 melanoma
  TGI: > 100 µM
SF-268 CNS
  TGI: > 100 µM
ACHN renal
  TGI: > 100 µM
M14 melanoma
  TGI: > 100 µM
LOX IMVI melanoma
  TGI: 43.3 µM
OVCAR-4 ovarian
  TGI: 43.1 µM
A498 renal
  TGI: > 100 µM
MDA-MB-231 breast
  TGI: 45.2 µM
NCI-H522 lung
  TGI: 81.7 µM
T-47D breast
  TGI: > 100 µM
CAKI-1 renal
  TGI: 51.8 µM

## COC(=O)CCC(C)[C@H]1CCC2C3CC[C@@H]4CC5(CC[C@]4(C)C3C[C@H](OC(C)=O)[C@@]21C)OOC1(CCCCC1)OO5 (stereo partly drawn)
NCI-H23 lung
  TGI: > 100 µM
HCT-15 colon
  TGI: > 100 µM
SNB-19 CNS
  TGI: > 100 µM
MOLT-4 leukemia
  TGI: > 100 µM
MDA-N
  TGI: 35 µM
U251 CNS
  TGI: > 100 µM
K-562 leukemia
  TGI: > 100 µM
NCI-H460 lung
  TGI: > 100 µM
RXF 393 renal
  TGI: > 100 µM
NCI-H226 lung
  TGI: > 100 µM
OVCAR-3 ovarian
  TGI: > 100 µM
BT-549 breast
  TGI: > 100 µM
MDA-MB-435
  TGI: 37 µM
MALME-3M melanoma
  TGI: 60.3 µM
PC-3 prostate
  TGI: > 100 µM
SK-MEL-5 melanoma
  TGI: 80.9 µM
HT29 colon
  TGI: > 100 µM
HL-60(TB) leukemia
  TGI: 8.89 µM
HCT-116 colon
  TGI: > 100 µM
OVCAR-5 ovarian
  TGI: > 100 µM
MCF7 breast
  TGI: > 100 µM
SF-539 CNS
  TGI: > 100 µM
SR leukemia
  TGI: > 100 µM
TK-10 renal
  TGI: > 100 µM
HS 578T breast
  TGI: > 100 µM
SNB-75 CNS
  TGI: > 100 µM
RPMI-8226 leukemia
  TGI: 10.8 µM
786-0 renal
  TGI: > 100 µM
HCC-2998 colon
  TGI: 9.2 µM
SN12C renal
  TGI: > 100 µM
HOP-62 NSCLC
  TGI: > 100 µM
UACC-62 melanoma
  TGI: > 100 µM
COLO 205 colon
  TGI: > 100 µM
EKVX NSCLC
  TGI: 7.37 µM
SK-MEL-2 melanoma
  TGI: 52.2 µM
A549 NSCLC
  TGI: > 100 µM
OVCAR-8 ovarian
  TGI: > 100 µM
KM12 colon
  TGI: > 100 µM
IGROV1 ovarian
  TGI: 5.48 µM
CCRF-CEM leukemia
  TGI: > 100 µM
SF-295 CNS
  TGI: > 100 µM
DU-145 prostate
  TGI: 43.1 µM
UO-31 renal
  TGI: 9.04 µM
NCI/ADR-RES ovarian
  TGI: > 100 µM
HOP-92 NSCLC
  TGI: > 100 µM
SK-MEL-28 melanoma
  TGI: > 100 µM
UACC-257 melanoma
  TGI: > 100 µM
SF-268 CNS
  TGI: > 100 µM
ACHN renal
  TGI: > 100 µM
M14 melanoma
  TGI: > 100 µM
SK-OV-3 ovarian
  TGI: > 100 µM
OVCAR-4 ovarian
  TGI: > 100 µM
A498 renal
  TGI: > 100 µM
MDA-MB-231 breast
  TGI: > 100 µM
NCI-H522 lung
  TGI: 40.5 µM
T-47D breast
  TGI: 50 µM
CAKI-1 renal
  TGI: 37 µM

## OCCN1CCN(c2nc(N3CCCC3)c3nc(Cl)c(NCc4ccccc4)nc3n2)CC1
NCI-H23 lung
  TGI: 29.4 µM
HCT-15 colon
  TGI: 7.91 µM
SNB-19 CNS
  TGI: 21.3 µM
MOLT-4 leukemia
  TGI: 15.3 µM
MDA-N
  TGI: 8.47 µM
U251 CNS
  TGI: 18.2 µM
K-562 leukemia
  TGI: 22 µM
NCI-H460 lung
  TGI: 18.1 µM
RXF 393 renal
  TGI: 3.68 µM
NCI-H226 lung
  TGI: 37.8 µM
SW-620 colon
  TGI: 17.5 µM
OVCAR-3 ovarian
  TGI: 23.5 µM
BT-549 breast
  TGI: 20.7 µM
MDA-MB-435
  TGI: 10.7 µM
MALME-3M melanoma
  TGI: 11.7 µM
PC-3 prostate
  TGI: 22.8 µM
SK-MEL-5 melanoma
  TGI: 7.82 µM
HT29 colon
  TGI: 10.6 µM
HL-60(TB) leukemia
  TGI: 11.8 µM
HCT-116 colon
  TGI: 17.6 µM
OVCAR-5 ovarian
  TGI: 26.6 µM
MCF7 breast
  TGI: 17.2 µM
SF-539 CNS
  TGI: 13.6 µM
SR leukemia
  TGI: 15.2 µM
TK-10 renal
  TGI: 19.2 µM
HS 578T breast
  TGI: 31 µM
SNB-75 CNS
  TGI: 8.67 µM
RPMI-8226 leukemia
  TGI: 8.35 µM
786-0 renal
  TGI: 4.23 µM
HCC-2998 colon
  TGI: 3.56 µM
SN12C renal
  TGI: 24.2 µM
HOP-62 NSCLC
  TGI: 8.98 µM
UACC-62 melanoma
  TGI: 9.26 µM
COLO 205 colon
  TGI: 6.73 µM
EKVX NSCLC
  TGI: 25 µM
SK-MEL-2 melanoma
  TGI: 16.8 µM
A549 NSCLC
  TGI: 21.4 µM
OVCAR-8 ovarian
  TGI: 23.5 µM
KM12 colon
  TGI: 15.8 µM
IGROV1 ovarian
  TGI: 23.1 µM
CCRF-CEM leukemia
  TGI: 11.7 µM
SF-295 CNS
  TGI: 13.4 µM
DU-145 prostate
  TGI: 23.6 µM
UO-31 renal
  TGI: 11.5 µM
NCI/ADR-RES ovarian
  TGI: 26.7 µM
HOP-92 NSCLC
  TGI: 16.8 µM
SK-MEL-28 melanoma
  TGI: 9.08 µM
UACC-257 melanoma
  TGI: 9.79 µM
SF-268 CNS
  TGI: 23.2 µM
ACHN renal
  TGI: 20.7 µM
M14 melanoma
  TGI: 7.24 µM
LOX IMVI melanoma
  TGI: 10.6 µM
SK-OV-3 ovarian
  TGI: 27.5 µM
OVCAR-4 ovarian
  TGI: 25.4 µM
A498 renal
  TGI: 25 µM
MDA-MB-231 breast
  TGI: 25 µM
NCI-H522 lung
  TGI: 18.7 µM
T-47D breast
  TGI: 17.4 µM
CAKI-1 renal
  TGI: 23.7 µM
